Assay results from US20220281848A1, “PYRAZOLE-SUBSTITUTED PYRROLIDINONES AS HERBICIDES” (FMC Corporation, priority 2019, published 2022).

What was measured:
Format in all cases: in vivo
[1] = tested on: giant foxtail (Setaria faberi, SETFA); assay: Test A pre-emergence, giant foxtail; conditions: after 13 d
Procedure, shortened: (§1)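 Pots of soil sown, sprayed at day 1 post-sowing: test compound at 15.625/62.5/250 g/ha in acetone:water 1:1 + 0.5% Tween 20. Glasshouse 24/16° C., 14 h light, 65% RH, watering twice daily. Readout: % damage after 13 d.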

[2] = tested on: barnyardgrass (Echinochloa crus-galli, ECHCG); assay: Test A post-emergence, barnyardgrass; conditions: after 13 d
Procedure, shortened: (§2)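 Plants were grown 8 d in a glasshouse (24/16° C day/night, 14 h light, 65% humidity), then sprayed post-emergence at 15.625, 62.5 or 250 g/ha in acetone/water (50:50) with 0.5% Tween 20. Damage was scored visually after 13 d (0 = none, 100 = total).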

[3] = tested on: ivy-leaved morning glory (Ipomoea hederacea, IPOHE); assay: Test A post-emergence, ivy-leaved morning glory; conditions: after 13 d
Procedure, shortened: as §2

[4] = tested on: velvetleaf (Abutilon theophrasti, ABUTH); assay: Test A post-emergence, velvetleaf; conditions: after 13 d
Procedure, shortened: as §2

[5] = tested on: maize; assay: Test D pre-emergence, maize seed treated with a herbicide safener; conditions: ZEAMX, preemergent, 20 DAA
Experimental: (§3) A formulation containing 50 g/L of the test chemical was prepared by dissolving the active ingredient in a mixture of organic solvents and emulsifier, details of which are provided in the table. This formulation was then mixed with a small, variable amount of acetone to aid dissolution, before addition of a 0.2% v/v aqueous solution of an adjuvant, as the aqueous diluent, to form an aqueous spray solution which contains a predetermined concentration of the active ingredient.
(§4) This aqueous spray solution was then sprayed onto plants including maize and wheat that had been seed treated with a herbicide safener, after one day's cultivation (for pre-emergence) or after about 12 days' cultivation (for post-emergence). The plants were grown from seeds sown in standard soil, placed in a glasshouse under controlled conditions (at 24/18° C. or 20/16° C., day/night; 16 h light; 65% humidity). After spray application the plants were then grown in a glasshouse under the same conditions and watered twice daily. After 15 d for post-emergence and 20 DAA for pre-emergence the test was evaluated (100=total damage to plant; 0=no damage to plant).

[6] = tested on: redroot pigweed (Amaranthus retroflexus, AMARE); assay: Test A post-emergence, redroot pigweed; conditions: after 13 d
Procedure, shortened: as §2

[7] = tested on: corn (Zea mays, ZEAMX); assay: Test A pre-emergence, corn; conditions: after 13 d
Procedure, shortened: as §1

[8] = tested on: giant foxtail (Setaria faberi, SETFA); assay: Test A post-emergence, giant foxtail; conditions: after 13 d
Procedure, shortened: as §2

[9] = tested on: wheat; assay: Test D pre-emergence, wheat seed treated with a herbicide safener; conditions: 100=total damage, 0=no damage
Experimental: as §3, §4

[10] = tested on: redroot pigweed (Amaranthus retroflexus, AMARE); assay: Test A pre-emergence, redroot pigweed; conditions: after 13 d
Procedure, shortened: as §1

[11] = tested on: wheat; assay: Test D post-emergence, wheat seed treated with a herbicide safener; conditions: "Cereals" Postemergent
Experimental: as §3, §4

## CN1CC(c2cc(C(F)(F)F)n(C)n2)C(C(=O)Nc2cccc(F)c2F)C1=O (racemic) [Compound 3]
[1]; Pre-Emergence at 15.625 g/ha
  damage to plant (100=total damage; 0=no damage) SETFA: 90
[1]; Pre-Emergence at 62.5 g/ha
  damage to plant (100=total damage; 0=no damage) SETFA: 90
[1]; Pre-Emergence at 250 g/ha
  damage to plant (100=total damage; 0=no damage) SETFA: 90
[2]; Post-Emergence at 15.625 g/ha
  damage to plant (100=total damage; 0=no damage) ECHCG: 90
[2]; Post-Emergence at 62.5 g/ha
  damage to plant (100=total damage; 0=no damage) ECHCG: 90
[2]; Post-Emergence at 250 g/ha
  damage to plant (100=total damage; 0=no damage) ECHCG: 90
[3]; Post-Emergence at 15.625 g/ha
  damage to plant (100=total damage; 0=no damage) IPOHE: 0
[3]; Post-Emergence at 62.5 g/ha
  damage to plant (100=total damage; 0=no damage) IPOHE: 0
[3]; Post-Emergence at 250 g/ha
  damage to plant (100=total damage; 0=no damage) IPOHE: 0
[4]; Post-Emergence at 15.625 g/ha
  damage to plant (100=total damage; 0=no damage) ABUTH: 0
[4]; Post-Emergence at 62.5 g/ha
  damage to plant (100=total damage; 0=no damage) ABUTH: 0
[4]; Post-Emergence at 250 g/ha
  damage to plant (100=total damage; 0=no damage) ABUTH: 0
[5]; rate 15
  damage to plant (100=total damage to plant; 0=no damage to plant), ZEAMX: 0
[5]; rate 30
  damage to plant (100=total damage to plant; 0=no damage to plant), ZEAMX: 0
[5]; rate 60
  damage to plant (100=total damage to plant; 0=no damage to plant), ZEAMX: 0
[5]; rate 130
  damage to plant (100=total damage to plant; 0=no damage to plant), ZEAMX: 0
[5]; rate 250
  damage to plant (100=total damage to plant; 0=no damage to plant), ZEAMX: 0
[5]; rate 500
  damage to plant (100=total damage to plant; 0=no damage to plant), ZEAMX: 0
[6]; Post-Emergence at 15.625 g/ha
  damage to plant (100=total damage; 0=no damage) AMARE: 0
[6]; Post-Emergence at 62.5 g/ha
  damage to plant (100=total damage; 0=no damage) AMARE: 10
[6]; Post-Emergence at 250 g/ha
  damage to plant (100=total damage; 0=no damage) AMARE: 20
[7]; Pre-Emergence at 15.625 g/ha
  damage to plant (100=total damage; 0=no damage) ZEAMX: 0
[7]; Pre-Emergence at 62.5 g/ha
  damage to plant (100=total damage; 0=no damage) ZEAMX: 60
[7]; Pre-Emergence at 250 g/ha
  damage to plant (100=total damage; 0=no damage) ZEAMX: 90
[8]; Post-Emergence at 15.625 g/ha
  damage to plant (100=total damage; 0=no damage) SETFA: 80
[8]; Post-Emergence at 62.5 g/ha
  damage to plant (100=total damage; 0=no damage) SETFA: 90
[8]; Post-Emergence at 250 g/ha
  damage to plant (100=total damage; 0=no damage) SETFA: 90
[9]; rate 15, 20 DAA
  damage to plant, TRZAW: 0
[9]; rate 30, 20 DAA
  damage to plant, TRZAW: 0
[9]; rate 60, 20 DAA
  damage to plant, TRZAW: 0
[9]; rate 130, 20 DAA
  damage to plant, TRZAW: 0
[9]; rate 250, 20 DAA
  damage to plant, TRZAW: 0
[9]; rate 500, 20 DAA
  damage to plant, TRZAW: 60
[10]; Pre-Emergence at 15.625 g/ha
  damage to plant (100=total damage; 0=no damage) AMARE: 20
[10]; Pre-Emergence at 62.5 g/ha
  damage to plant (100=total damage; 0=no damage) AMARE: 20
[10]; Pre-Emergence at 250 g/ha
  damage to plant (100=total damage; 0=no damage) AMARE: 70
[11]; Rates 130, evaluated after 15 d
  TRZAW damage rating (100=total damage to plant; 0=no damage to plant): 0
[11]; Rates 250, evaluated after 15 d
  TRZAW damage rating (100=total damage to plant; 0=no damage to plant): 0
[11]; Rates 500, evaluated after 15 d
  TRZAW damage rating (100=total damage to plant; 0=no damage to plant): 50
